In patent US11771765B2, “Light augmented treatment method” (The Procter & Gamble Company, priority 2019, dated 2023):

Key:
protoporphyrin IX (PPIX) [1] = assay: Protoporphyrin IX levels in treated M. furfur cells by HPLC; type: cell-based
M. furfur [2] = assay: M. furfur growth after 20 min treatment, then 409 nm light or dark (Table 2); type: cell-based, Malassezia furfur
Procedure: Cells are grown in the medium of choice, generally one requiring respiration. In the case of Malassezia furfur that medium is modified Dixon medium (mDixon) (per one liter: 36 g malt extract (Difco 0186-17), 20 g ox bile (provided by American Laboratories, Inc., of Omaha, Nebraska, as Lot No. 03130792), 10 ml Tween 40 (Aldrich 27435-6), 6 g peptone (Difco 0118-17), 2 ml oleic acid (Baker 2114-01), and 2 ml glycerol (Sigma G-7893)). [Candida and YPG, Saccharomyces and YNB (without amino acids) to which we added 40 μg/ml each of uracil, histidine, and methionine plus 130 μg/ml leucine and 2% ethanol and 0.1% yeast extract.] Conventional medium may also be used for other microbials. Starting cultures are prepared by diluting a fresh overnight culture that is out of log phase 1:100 and incubating with shaking at 31° C. in a 250 mL shake flask (Corning, 431144) with 20 mL medium shaking at 200-250 rpm for about 3 hours to ensure the cells had returned to growth phase. At this time, the test agent is added to the flasks to afford the final concentration for testing. The cells are cultured for 1 hour with the test agent. At this time, the cells typically have an OD at 600 nm in the range of 0.25 to 0.8. Generally, we isolate 2.5 OD*mLs of cells calculated as desired OD*mLs divided by the OD600 of the cells. These media samples are centrifuged (Beckman Coulter Allegra™ 6KR centrifuge) 10 minutes at RT at 3200 rpm to pellet the cells. The supernatant is poured off and the tubes are set upside down on a folded paper towel to drain off the remains of media. Two and one half milliliters of PBS (Gibco, pH 7.4, without magnesium chloride or calcium chloride, 14190-144) is added and the cells resuspended. One mL of cells is transferred to each of two 12-well plates (Falcon, polystyrene, 353043). One plate is stored in the dark and the other is exposed to the light with the plate cover on the plate. […] When the light exposure is completed, the samples are mixed by slowly vortexing or pipetting and 0.65 mL of each sample is transferred to 13 mL of medium for overnight growth at 31° C. with shaking. The following morning, typically 18 hours later, the ODs at 600 nm are determined. Successful materials are those that show at least a 50% reduction in growth after light exposure relative to a dark sample.
M. furfur is incubated for twenty minutes with the indicated treatment. A cell pellet is collected after centrifugation so that most of the anti-fungal materials is expected to have been removed. The cell pellet is suspended in PBS and either treated with light (409 nm, 1100 foot candles) for ten minutes or stored in the dark for ten minutes. Samples are then diluted into mDixon with subsequent growth indicated by OD 600 nm.

M. furfur [3] = assay: Dependence of photosensitivity on wavelength, M. furfur (Table 5); type: cell-based, Malassezia furfur; set-up: overnight growth in mDixon: unit not given here; conditions: for overnight growth in mDixon: N=1
Procedure: Dependence of photosensitivity on wavelength. A fresh overnight culture is diluted 100 fold and grown for three hours to an OD of 0.16. M. furfur is treated at the indicated dose and cultured another three hours. Cells are harvested by centrifugation, suspended in PBS, and exposed to an LED array at the indicated wavelength. The illumination is for ten minutes with 1200 foot candles. The cultures are then allowed to grow overnight in mDixon. N=1.

protoporphyrin IX (PPIX) [4] = assay: Protoporphyrin IX levels in treated M. furfur cells by HPLC; type: cell-based; conditions: increasing concentrations
Description: PPIX absorb light in the 400 nm range, and when light is absorbed, PPIX transitions to an excited triplet state that can react with triplet oxygen to produce singlet oxygen or the excited porphyrin can generate ROS through single electron processes. These reactive species result in a loss of cell viability.
M. furfur cells are exposed to other antifungals that are not considered chelators (i.e. selenium sulfide (SeSx), Sulfur, Climbazole, and Terbinafine). After treatment, cells are then exposed to light, or not exposed to light. Both OD are measured to measure growth and PPIX levels are measured.

[5] = 8 ppm 20 min, Light 409 nm, 1100 foot candles, 10 min
[6] = 16 ppm 20 min, Light 409 nm, 1100 foot candles, 10 min
[7] = 24 ppm 20 min, Light 409 nm, 1100 foot candles, 10 min
[8] = 32 ppm 20 min, Light 409 nm, 1100 foot candles, 10 min
[9] = prior treatment, with the addition of light
[10] = LED arrays of 520 (green) and 595 (yellow) light

Cc1cc(CC(C)CC(C)(C)C)n(O)c(=O)c1.NCCO (centres unmarked) [Piroctone Olamine, 1-Hydroxy-4-methyl-6-(2,4,4-trimethylpentyl)-2-pyridone monoethanolamine salt]
Total PPIX (protoporphyrin IX (PPIX) [1]; Piroctone Olamine 6 ppm): 2.6 ng | Total PPIX (protoporphyrin IX (PPIX) [1]; Piroctone Olamine 8 ppm): 13.9 ng | Total PPIX (protoporphyrin IX (PPIX) [1]; Piroctone Olamine 16 ppm): 20.7 ng | Total PPIX (protoporphyrin IX (PPIX) [1]; Piroctone Olamine 32 ppm): 16.5 ng | growth, OD 600 nm (M. furfur [2]; 8 ppm 20 min, Dark 10 min): 7.82 | growth, OD 600 nm (M. furfur [2]; [5]): 7.35 | growth, OD 600 nm (M. furfur [2]; 16 ppm 20 min, Dark 10 min): 7.90 | growth, OD 600 nm (M. furfur [2]; [6]): 0.07 | growth, OD 600 nm (M. furfur [2]; 24 ppm 20 min, Dark 10 min): 7.07 | growth, OD 600 nm (M. furfur [2]; [7]): 0.03 | growth, OD 600 nm (M. furfur [2]; 32 ppm 20 min, Dark 10 min): 6.76 | growth, OD 600 nm (M. furfur [2]; [8]): 0.02 | growth, OD 600 nm (M. furfur [2]; 48 ppm 20 min, Dark 10 min): 7.21 | growth, OD 600 nm (M. furfur [2]; 48 ppm 20 min, Light 409 nm, 1100 foot candles, 10 min): 0.03 | growth, OD 600 nm (M. furfur [2]; 64 ppm 20 min, Dark 10 min): 7.23 | growth, OD 600 nm (M. furfur [2]; 64 ppm 20 min, Light 409 nm, 1100 foot candles, 10 min): 0.02 | growth inhibition (M. furfur [2]; [9]): considerable growth inhibition | overnight growth in mDixon (M. furfur [3]; 8 ppm 3 h, 409 nm LED array, 10 min, 1200 foot candles): 0.891 | overnight growth in mDixon (M. furfur [3]; 8 ppm 3 h, 520 nm LED array, 10 min, 1200 foot candles): 4.34 | overnight growth in mDixon (M. furfur [3]; 8 ppm 3 h, 595 nm LED array, 10 min, 1200 foot candles): 5.59 | overnight growth in mDixon (M. furfur [3]; 8 ppm 3 h, Dark): 4.36 | overnight growth in mDixon (M. furfur [3]; 12 ppm 3 h, 409 nm LED array, 10 min, 1200 foot candles): 0.068 | overnight growth in mDixon (M. furfur [3]; 12 ppm 3 h, 520 nm LED array, 10 min, 1200 foot candles): 3.76 | overnight growth in mDixon (M. furfur [3]; 12 ppm 3 h, 595 nm LED array, 10 min, 1200 foot candles): 4.22 | overnight growth in mDixon (M. furfur [3]; 12 ppm 3 h, Dark): 2.79 | photosensitivity (M. furfur [3]; LED array of 409 nm light): observed photosensitivity | photosensitivity (M. furfur [3]; [10]): not with LED arrays of 520 (green) and 595 (yellow) light | PPIX levels (protoporphyrin IX (PPIX) [4]): increased levels of PPIX

[O-]n1ccccc1=S.[O-]n1ccccc1=S.[Zn+2] [ZPT, zinc salt of 1-hydroxy-2-pyridinethione]
Total PPIX (protoporphyrin IX (PPIX) [1]; ZPT 2.5 ppm): 0.37 ng | Total PPIX (protoporphyrin IX (PPIX) [1]; ZPT 5 ppm): 0.47 ng | Total PPIX (protoporphyrin IX (PPIX) [1]; ZPT 10 ppm): 0.27 ng | growth, OD 600 nm (M. furfur [2]; 4 ppm 20 min, Dark 10 min): 10.14 | growth, OD 600 nm (M. furfur [2]; 4 ppm 20 min, Light 409 nm, 1100 foot candles, 10 min): 4.86 | growth, OD 600 nm (M. furfur [2]; 8 ppm 20 min, Dark 10 min): 9.02 | growth, OD 600 nm (M. furfur [2]; [5]): 3.16 | growth, OD 600 nm (M. furfur [2]; 16 ppm 20 min, Dark 10 min): 5.72 | growth, OD 600 nm (M. furfur [2]; [6]): 0.24 | growth inhibition (M. furfur [2]; 16 to 32 ppm, without light exposure): some growth inhibition | growth, OD 600 nm (M. furfur [2]; 24 ppm 20 min, Dark 10 min): 5.54 | growth, OD 600 nm (M. furfur [2]; [7]): 2.41 | growth, OD 600 nm (M. furfur [2]; 32 ppm 20 min, Dark 10 min): 2.61 | growth, OD 600 nm (M. furfur [2]; [8]): 1.65 | growth inhibition (M. furfur [2]; [9]): considerable growth inhibition | overnight growth in mDixon (M. furfur [3]; 6 ppm 3 h, 409 nm LED array, 10 min, 1200 foot candles): 0.354 | overnight growth in mDixon (M. furfur [3]; 6 ppm 3 h, 520 nm LED array, 10 min, 1200 foot candles): 3.37 | overnight growth in mDixon (M. furfur [3]; 6 ppm 3 h, 595 nm LED array, 10 min, 1200 foot candles): 3.75 | overnight growth in mDixon (M. furfur [3]; 6 ppm 3 h, Dark): 3.31 | photosensitivity (M. furfur [3]; LED array of 409 nm light): observed photosensitivity | photosensitivity (M. furfur [3]; [10]): not with LED arrays of 520 (green) and 595 (yellow) light | PPIX levels (protoporphyrin IX (PPIX) [4]): increased levels of PPIX
